Experimental data reported in patent US20040121947A1, “Compounds which inhibit beta-secretase activity and methods of use thereof” (Oklahoma Medical Research Foundation, priority 2000, published 2004).
Where two headings read alike, the source gives them in different places.

Molecular target: T1, memapsin 2 (Homo sapiens, UniProt P56817)
T1 construct: pET-11 vector-derived residues 1-15 of promemapsin 2-T1 (N, cleaved yes); made in house; host or cells: E. coli
Experiment: Inhibition of memapsin 2 proteolytic activity, fluorogenic substrate FS-2
Format: biochemical
Details: for Vi/Vo: ratio of initial cleavage velocities of FS-2 with/without compound, enzyme and inhibitor concentrations equal (e.g., about 80 nM, 100 nM)
Protocol: Ki is the inhibition equilibrium constant which indicates the ability of compounds to inhibit the β-secretase activity of memapsin 2 and memapsin 1. […] The K1 value is independent of the substrate, and converted from Ki apparent.
The Vi/Vo values depicted in Table 1 were determined at conditions under which the enzyme and inhibitor concentrations were equal (e.g., about 80 nM, 100 nM).
The relationship of Ki (independent of substrate concentration) to Kiapp is a function of substrate concentration in the assay and the Km for cleavage of the substrate by either memapsin 1 or memapsin 2 by the relationship:
The spontaneously activated memapsin 2 was employed in assays to assess the inhibition of memapsin 2 relative to memapsin 1 by compounds of the invention and in some crystallization studies.
An aliquot of the inhibitor of known concentration in DMSO was diluted into 1.8 ml 0.1 M NaOAc, pH 4.0. DMSO and added to a final concentration of 10% (v/v), and memapsin 2 (final concentration of 80 nM), followed by a 20 minute equilibration at 37° C. Compounds were evaluated for the ability to inhibit memapsin 1 and memapsin 2 at concentrations between about 10 nM and about 10 μm of inhibitor.

[1] = memapsin 2, apparent Ki in presence of substrate FS-2, read-out: Ki app
[2] = memapsin 2, independent of substrate, converted from Ki apparent, read-out: Ki
[3] = memapsin 2, apparent Ki in presence of substrate FS-2
[4] = memapsin 2, independent of substrate, converted from Ki apparent
[5] = Ki, [I] < 100, memapsin 2, [I] < 100 (nM)

T1 sequence (P56817 41-454 limits assumed): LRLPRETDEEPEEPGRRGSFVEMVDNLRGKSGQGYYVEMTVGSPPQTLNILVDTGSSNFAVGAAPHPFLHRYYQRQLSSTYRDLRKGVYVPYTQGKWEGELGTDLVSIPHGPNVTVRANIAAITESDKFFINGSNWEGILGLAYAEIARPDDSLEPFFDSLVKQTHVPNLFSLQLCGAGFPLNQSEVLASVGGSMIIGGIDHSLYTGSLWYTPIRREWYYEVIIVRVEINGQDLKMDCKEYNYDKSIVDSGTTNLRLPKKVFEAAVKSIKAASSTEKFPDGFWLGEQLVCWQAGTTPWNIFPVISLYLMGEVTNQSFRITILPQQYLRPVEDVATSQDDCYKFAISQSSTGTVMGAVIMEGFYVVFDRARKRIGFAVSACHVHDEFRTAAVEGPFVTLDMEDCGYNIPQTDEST

Row | Structure (SMILES) | Ki [1] | Ki [2] | Vi/Vo | other results
1 | CSCC[C@H](NC(=O)[C@@H](NC(=O)OC(C)(C)C)C(C)C)C(=O)N[C@@H](CC(C)C)[C@@H](O)C[C@@H](C)C(=O)N[C@@H](C(C)C)C1CC(Cc2ccccc2)CC(=O)O1 (some centres unmarked) [MMI-140] | 38700 nM | 24200 nM |  | 
2 | COc1cccc(C(=O)N[C@@H](CCSC)C(=O)N[C@@H](CC(C)C)[C@@H](O)C[C@@H](C)C(=O)N[C@@H](CC(C)C)C(=O)NC(C)C)c1 [MMI-209] | 1300 nM | 812 nM |  | 
3 | CSCC[C@H](NC(=O)[C@@H](NC(=O)OC(C)(C)C)C(C)C)C(=O)N[C@@H](CC(C)C)[C@@H](O)C[C@@H](C)C(=O)N[C@@H](C)C(=O)NCc1ccccc1 [MMI-008] | 73.6 nM | 46 nM |  | 
4 | CC(C)C[C@H](NC(=O)[C@H](CS(C)(=O)=O)NC(=O)OC(C)(C)C)[C@@H](O)C[C@@H](C)C(=O)N[C@H](C(=O)NCc1ccccc1)C(C)C [MMI-024] | 1440 nM | 902 nM |  | 
5 | CC(C)C[C@H](NC(=O)[C@H](CCS(C)(=O)=O)NC(=O)OC(C)(C)C)[C@@H](O)C[C@@H](C)C(=O)N[C@H](C(=O)NCc1ccccc1)C(C)C [MMI-016] | 5640 nM | 3530 nM |  | 
6 | CSCC[C@H](NC(=O)C(C)Cn1nc(C)cc1C)C(=O)N[C@@H](CC(C)C)[C@@H](O)C[C@@H](C)C(=O)N[C@H](C(=O)NCC(C)C)C(C)C (some centres unmarked) [MMI-195] | 451 nM | 282 nM |  | 
7 | CSCC[C@H](NC(=O)OC(C)(C)C)C(=O)N[C@@H](CC(C)C)[C@@H](O)C[C@@H](C)C(=O)N[C@H](C(=O)NCc1ccccc1)C(C)C [MMI-015] | 9040 nM | 5650 nM |  | 
8 | CC(C)C[C@H](NC(=O)[C@H](CS(C)(=O)=O)NC(=O)OCc1cccnc1)[C@@H](O)C[C@@H](C)C(=O)N[C@H](C(=O)NCc1ccccc1)C(C)C [MMI-142] |  |  | 0.92 | 
9 | CSCC[C@H](NC(=O)c1cccc(C)c1C)C(=O)N[C@@H](CC(C)C)[C@@H](O)C[C@@H](C)C(=O)N[C@@H](CC(C)C)C(=O)NC(C)C [MMI-210] | 899 nM | 562 nM |  | 
10 | CSCC[C@H](NC(=O)[C@@H](NC(=O)OC(C)(C)C)C(C)C)C(=O)N[C@@H](CC(C)C)[C@@H](O)C[C@@H](C)C(=O)N[C@H](C(=O)NCc1ccccc1)C1CCCO1 (some centres unmarked) [MMI-034] | 223 nM | 139 nM |  | 
11 | CSCC[C@H](NC(=O)[C@@H](NC(=O)OC(C)(C)C)C(C)C)C(=O)N[C@@H](CC(C)C)[C@@H](O)C[C@]1(C)CCN([C@@H](CC(C)C)C(=O)NCC(C)C)C1=O [MMI-191] |  |  |  | Ki app [3]: N.I.; Ki [4]: N.I.
12 | CSCC[C@H](NC(=O)[C@@H](NC(=O)OC(C)(C)C)C(C)C)C(=O)N[C@@H](CC(C)C)[C@@H](O)C[C@]1(C)CCN([C@H](C(=O)N2CCN(C)CC2)C(C)C)C1=O [MMI-192] | 374 nM | 234 nM |  | 
13 | CSCC[C@H](NC(=O)[C@@H](NC(=O)OC(C)(C)C)C(C)C)C(=O)N[C@@H](CC(C)C)[C@@H](O)C[C@@H](C)C(=O)N[C@@H](CC(C)C)C(=O)NC1Cc2ccccc2C1 [MMI-066] | 21.2 nM | 13.2 nM |  | 
14 | CC(C)C[C@H](NC(=O)[C@@H]1CC(=O)NC/C=C\COC(=O)N[C@@H](C(C)C)C(=O)N1)[C@@H](O)C[C@@H](C)C(=O)N[C@H](C(=O)NCc1ccccc1)C(C)C [MMI-149] |  |  | 0.66 | 
15 | CSCC[C@H](NC(=O)OCc1ccnn1C)C(=O)N[C@@H](CC(C)C)[C@@H](O)C[C@@H](C)C(=O)N[C@H](C(=O)NCC(C)C)C(C)C [MMI-186] | 217 nM | 136 nM |  | 
16 | CC(C)C[C@H](NC(=O)[C@H](CCS(C)(=O)=O)NC(=O)[C@@H](NC(=O)OC(C)(C)C)C(C)C)[C@@H](O)C[C@@H](C)C(=O)N[C@H](C(=O)NCc1ccccc1)C1CCCO1 (some centres unmarked) [MMI-035] | 426 nM | 266 nM |  | 
17 | CCC[C@H](C[C@H](O)[C@H](CC(C)C)NC(=O)[C@H](CSC)NC(=O)c1cccc(O)c1C)C(=O)N[C@H](C(=O)NCc1ccccc1)C(C)C [MMI-032] | 1340 nM | 838 nM |  | 
18 | CSCC[C@H](NC(=O)[C@@H](NC(=O)OC(C)(C)C)C(C)C)C(=O)N[C@@H](CO)[C@@H](O)C[C@@H](C)C(=O)N[C@H](C(=O)NCc1ccccc1)C(C)C [MMI-155] | 2.06 nM | 1.28 nM | 0.08 | 
19 | CC(C)C[C@H](NC(=O)C(CCS(C)(=O)=O)NC(=O)[C@@H](NC(=O)OC(C)(C)C)C(C)C)[C@@H](O)C[C@@H](C)C(=O)N[C@H](C(=O)NCc1ccccc1)[C@H](C)O (some centres unmarked) [MMI-082] |  |  | 0.72 | 
20 | CSCC[C@H](NC(=O)[C@H](CC(C)C)NC(=O)OC(C)(C)C)C(=O)N[C@@H](CC(C)C)[C@@H](O)C[C@@H](C)C(=O)N[C@H](C(=O)NCc1ccccc1)C(C)C [MMI-070] | 4.9 nM | 3.06 nM |  | 

Row | Structure (SMILES) | Ki [1] | Ki [2] | Vi/Vo | other results
21 | CSCC[C@H](NC(=O)[C@@H](NC(=O)OC(C)(C)C)C(C)C)C(=O)N[C@@H](CC(C)C)[C@@H](O)C[C@@H](C)C(=O)N[C@H](COCc1ccccc1)C(C)C [MMI-041] |  |  |  | Ki app [3]: N.I.; Ki [4]: N.I.
22 | CC(C)C[C@H](NC(=O)[C@@H]1CC(=O)NC/C=C\CCOC(=O)N[C@@H](C(C)C)C(=O)N1)[C@@H](O)C[C@@H](C)C(=O)N[C@H](C(=O)NCc1ccccc1)C(C)C [MMI-152] | 20.6 nM | 12.8 nM | 0.47 | 
23 | CSCC[C@H](NC(=O)C(C)Cn1nc(C)cc1C)C(=O)N[C@@H](CC(C)C)[C@@H](O)C[C@@H](C)C(=O)N[C@@H](CC(C)C)C(=O)NCc1ccco1 (some centres unmarked) [MMI-226] | 110 nM | 68.9 nM |  | 
24 | CC(C)CNC(=O)[C@@H](NC(=O)[C@H](C)C[C@H](O)[C@H](CC(C)C)NC(=O)[C@H](CCS(C)(=O)=O)NC(=O)[C@H](CC(C)C)NC(=O)OC(C)(C)C)C(C)C [MMI-135] | 10.3 nM | 6.46 nM | 0.12 | 
25 | CSCC[C@H](NC(=O)OCc1ccco1)C(=O)N[C@@H](CC(C)C)[C@@H](O)C[C@@H](C)C(=O)N[C@H](C(=O)NCc1ccccc1)C(C)C [MMI-119] |  |  | 0.38 | 
26 | CSCC[C@H](NC(=O)[C@@H](NC(=O)OC(C)(C)C)C(C)C)C(=O)N[C@@H](CC(C)C)[C@@H](O)C[C@@H](C)C(=O)N[C@@H]1CCCC[C@@H]1O [MMI-057] | 73300 nM | 45800 nM |  | 
27 | CSCC[C@H](NC(=O)[C@@H](NC(=O)OC(C)(C)C)C(C)C)C(=O)N[C@@H](CC(C)C)[C@@H](O)C[C@@H](C)C(=O)N[C@@H](CC(C)C)C(=O)N1CCOCC1 [MMI-183] | 6740 nM | 4210 nM | 0.64 | Ki [5]: 108 nM
28 | Cc1c(O)cccc1C(=O)N[C@H](C(=O)N[C@@H](CCS(C)(=O)=O)C(=O)N[C@@H](CC(C)C)[C@@H](O)C[C@@H](C)C(=O)N[C@@H](CC(C)C)C(=O)NCc1ccccc1)C(C)C [MMI-122] |  |  | 1.17 | 
29 | CCCCNC(=O)[C@@H](NC(=O)[C@H](C)C[C@H](O)[C@H](CC1CCC1)NC(=O)[C@H](CCSC)NC(=O)OCn1nc(C)cc1C)C(C)C [MMI-178] | 24.5 nM | 15.3 nM | 0.69 | 
30 | CSCC[C@H](NC(=O)[C@@H](NC(=O)c1cccc(O)c1C)C(C)C)C(=O)N[C@@H](CC(C)C)[C@@H](O)C[C@@H](C)C(=O)N[C@@H](CC(C)C)C(=O)NCc1ccccc1 [MMI-121] | 9550 nM | 5970 nM |  | 
31 | CCC[C@H](C[C@H](O)[C@H](CC(C)C)NC(=O)[C@H](CSC)NC(=O)OCc1cccnc1)C(=O)N[C@H](C(=O)NCc1ccccc1)C(C)C [MMI-031] | 864 nM | 539 nM |  | 
32 | CSCCC(NC(=O)[C@H](CC(C)C)NC(=O)OC(C)(C)C)C(=O)N[C@@H](CC(C)C)[C@@H](O)C[C@@H](C)C(=O)N[C@@H](CC(C)C)C(=O)NCc1ccccc1 (some centres unmarked) [MMI-097] | 82.8 nM | 51.7 nM |  | 
33 | CSCC[C@H](NC(=O)[C@H](CC(C)C)NC(=O)OC(C)(C)C)C(=O)N[C@@H](CC(C)C)[C@H](O)C[C@@H](C)C(=O)N[C@H](C(=O)NCc1ccccc1)C(C)C [MMI-113] | 99.9 nM | 62.1 nM |  | 
34 | CSCC[C@H](NC(=O)[C@@H](NC(=O)OC(C)(C)C)C(C)C)C(=O)N[C@@H](CC(C)C)[C@@H](O)C[C@@H](C)C(=O)N[C@H]1CCCC[C@@H]1O [MMI-055] |  | 394000 nM |  | 
35 | CSCC[C@H](C[C@H](O)[C@H](CC(C)C)NC(=O)[C@H](CCSC)NC(=O)[C@H](CC(C)C)NC(=O)OC(C)(C)C)C(=O)N[C@H](C(=O)NCc1ccccc1)C(C)C [MMI-164] | 12.8 nM | 7.98 nM | 0.29 | 
36 | COCOCC[C@H](NC(=O)[C@H](CC(C)C)NC(=O)OC(C)(C)C)C(=O)N[C@@H](CC(C)C)[C@@H](O)C[C@@H](C)C(=O)N[C@@H](CC(C)C)C(=O)NC(C)C [MMI-190] | 29.1 nM | 18.2 nM |  | 
37 | CCC(C)[C@H](NC(=O)[C@H](C)C[C@H](O)[C@H](CC(C)C)NC(=O)[C@H](CCO)NC(=O)c1cnc2ccccc2c1)C(=O)N[C@H]1c2ccccc2C[C@H]1O (some centres unmarked) [MMI-050] |  | 91200 nM |  | 
38 | CC(C)C[C@H](NC(=O)[C@@H](NC(=O)OC(C)(C)C)C(C)C)[C@@H](O)CN(C)C(=O)[C@H](NC(=O)OCc1ccccc1)C(C)C [MMI-062] |  |  |  | Ki app [3]: N.I.; Ki [4]: N.I.
39 | CSCC[C@H](NC(=O)c1cccc(O)c1C)C(=O)N[C@@H](CC(C)C)[C@@H](O)C[C@@H](C)C(=O)N[C@@H](CC(C)C)C(=O)NCc1ccccc1 [MMI-120] | 1800 nM | 1130 nM | 0.66 | Ki [5]: 175 nM
